For series [1] the following is noted: background statement; cited from earlier work.
Series [2] concerns the target nAChRs comprised of α4 and β2 subunits (3H-cytisine binding, cerebral cortex homogenate) (Rattus norvegicus, UniProt P09483+P12390). As to the kind of experiment: In vitro inhibition of 3H-cytisine binding. The method, then: In Vitro Inhibition of 3H-cytisine Binding
The predominant subtype with high affinity for nicotine is comprised of α4 and β2 subunits. nAChRs of the latter type can selectively be labelled by the nicotine agonist ^3H-cytisine.
Tissue Preparation: Preparations are performed at 0-4° C. unless otherwise indicated. […] The homogenate is centrifuged at 27,000×g for 10 min. The supernatant is discarded and the pellet is resuspended in fresh buffer and centrifuged a second time. The final pellet is resuspended in fresh buffer (35 ml per g of original tissue) and used for binding assays.
Assay: Aliquots of 500 μl homogenate are added to 25 μl of test solution and 25 μl of ^3H-cytisine (1 nM, final concentration), mixed and incubated for 90 min at 2° C. Non-specific binding is determined using (−)-nicotine (100 μM, final concentration). After incubation the samples are added 5 ml of ice-cold buffer and poured directly onto Whatman GF/C glass fibre filters under suction and immediately washed with 2×5 ml ice-cold buffer. The amount of radioactivity on the filters is determined by conventional liquid scintillation counting. Specific binding is total binding minus non-specific binding.
Results are given as IC50 values; the concentration (μM) that inhibit binding of the radioactive ligand by 50 %.

For series [3], the target named is nAChR formed by the α7 subunit (3H-α-bungarotoxin binding, cerebral cortex homogenate) (Rattus norvegicus, UniProt Q05941). As to the kind of experiment: biochemical.
Setting [4] is: rat cerebral cortex, 1 nM 3H-cytisine, 90 min at 2° C., read-out: 3H-cytisine IC50.

Like-named read-outs stand apart in the source and are kept apart here.

Chain of nAChR formed by the α7 subunit (3H-α-bungarotoxin binding, cerebral cortex homogenate) (Q05941 23-502): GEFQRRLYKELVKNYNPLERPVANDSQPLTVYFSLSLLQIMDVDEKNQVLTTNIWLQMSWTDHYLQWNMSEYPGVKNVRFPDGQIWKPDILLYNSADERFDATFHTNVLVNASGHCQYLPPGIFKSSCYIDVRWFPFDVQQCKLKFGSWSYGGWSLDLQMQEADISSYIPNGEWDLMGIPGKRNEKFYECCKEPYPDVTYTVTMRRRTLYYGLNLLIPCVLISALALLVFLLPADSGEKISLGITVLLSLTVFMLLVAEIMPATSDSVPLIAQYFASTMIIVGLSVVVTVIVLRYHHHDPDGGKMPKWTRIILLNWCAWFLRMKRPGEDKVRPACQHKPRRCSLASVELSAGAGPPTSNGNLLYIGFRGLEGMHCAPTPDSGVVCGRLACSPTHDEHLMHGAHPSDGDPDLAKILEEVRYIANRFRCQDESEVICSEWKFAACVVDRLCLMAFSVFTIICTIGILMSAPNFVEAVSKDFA
Chain of nAChRs comprised of α4 and β2 subunits (3H-cytisine binding, cerebral cortex homogenate) (P09483 31-630): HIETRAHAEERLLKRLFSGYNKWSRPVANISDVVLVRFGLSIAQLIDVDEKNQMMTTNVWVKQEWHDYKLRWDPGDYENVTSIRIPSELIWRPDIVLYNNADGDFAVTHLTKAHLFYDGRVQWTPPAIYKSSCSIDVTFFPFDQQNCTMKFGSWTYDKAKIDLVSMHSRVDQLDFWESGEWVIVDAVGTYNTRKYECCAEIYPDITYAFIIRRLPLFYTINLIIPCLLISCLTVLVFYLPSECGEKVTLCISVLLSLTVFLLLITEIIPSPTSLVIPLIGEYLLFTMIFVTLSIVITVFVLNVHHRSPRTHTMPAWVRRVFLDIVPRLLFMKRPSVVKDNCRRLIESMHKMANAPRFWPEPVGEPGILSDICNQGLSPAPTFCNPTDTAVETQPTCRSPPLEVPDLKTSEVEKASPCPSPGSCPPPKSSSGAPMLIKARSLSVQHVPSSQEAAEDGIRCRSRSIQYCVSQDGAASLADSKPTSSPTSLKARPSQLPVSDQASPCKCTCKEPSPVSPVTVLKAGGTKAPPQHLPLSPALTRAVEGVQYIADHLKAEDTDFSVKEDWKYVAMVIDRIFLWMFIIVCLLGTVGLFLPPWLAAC
Chain of nAChRs comprised of α4 and β2 subunits (3H-cytisine binding, cerebral cortex homogenate) (P12390 25-500): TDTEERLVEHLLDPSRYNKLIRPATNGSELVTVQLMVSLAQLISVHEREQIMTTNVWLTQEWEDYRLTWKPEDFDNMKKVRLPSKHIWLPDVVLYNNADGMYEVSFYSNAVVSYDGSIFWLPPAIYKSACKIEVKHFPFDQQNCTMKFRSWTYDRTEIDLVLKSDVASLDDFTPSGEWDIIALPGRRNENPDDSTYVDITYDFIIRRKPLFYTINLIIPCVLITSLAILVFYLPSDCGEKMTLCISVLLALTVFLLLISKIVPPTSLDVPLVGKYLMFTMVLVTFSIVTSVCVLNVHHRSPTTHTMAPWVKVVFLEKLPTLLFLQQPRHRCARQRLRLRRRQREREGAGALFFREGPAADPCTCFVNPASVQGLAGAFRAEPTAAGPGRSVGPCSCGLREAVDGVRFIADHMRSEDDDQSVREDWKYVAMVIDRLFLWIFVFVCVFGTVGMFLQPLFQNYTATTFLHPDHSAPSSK

For the molecule `Clc1ccc(C2CC3CCC2N3)cn1` (stereo not shown) [Epibatidine], the “analgesic potency relative to morphine” value in series [1] is given as ~500 times that of morphine.

Regarding `c1ccc2c(c1)OC1(CN3CCC1CC3)O2` [Compound 1a, Spiro[benzo-1,3-dioxolane-2,3-quinuclidine]], the melting point is 123 to 125 °C. In series [2], this molecule came in with an IC50 of 30 µM. The same molecule displayed an IC50 in series [3] of 0.19 µM.

Regarding `CC(C)(C)c1ccc2c(c1)OC1(CN3CCC1CC3)O2` (racemic) [Compound 3a, (±)-6-t.-Butyl-spiro[benzo-1,3-dioxolane-2,3′-quinuclidine]], the melting point was 184 to 186 °C. For the same molecule, the IC50 in series [2] (setting [4]) is above 10 µM. In addition, in series [3], the IC50 amounted to 2.3 µM.

`Cc1ccc2c(c1)OC1(CN3CCC1CC3)O2` (racemic) [Compound 2a, (±)-6-methyl-spiro[benzo-1,3-dioxolane-2,3′-quinuclidine]] registered a melting point of 173 to 175 °C. Moreover, the IC50 in series [2] (setting [4]) was found to be 23 µM. The same molecule displayed an IC50 in series [3] of 0.18 µM.

What is called melting point is the temperature, or range, at which the solid turns liquid. For orientation: IC50 means the concentration needed to halve the response being measured.

Source of the values: patent US6352995B1, “Spiro-quinuclidine derivatives, their preparation and use” (Neurosearch A/S, priority 1997, dated 2002).
